Results reported in PMC6429502, “Synthesis and AChE-Inhibitory Activity of New Benzimidazole Derivatives” (Molecules, 2019).
Where two headings read alike, the source gives them in different places.

Tests used:
[1] = biological target: AChE (Electrophorus electricus, UniProt O42275); assay: AChE inhibition, modified Ellman's method; type: biochemical
[2] = system: BChE; type: biochemical
Experimental: New benzimidazole-triazole derivatives were designed, synthesized, and evaluated for their potential to inhibit AChE and BChE. First, all the synthesized compounds were tested at 10^−3 M and 10^−4 M concentrations.
The inhibitory activities of the compounds against AChE and BChE were determined in 96-well plates by modified Ellman’s method as defined in our previous studies. Donepezil and tacrine were used as reference drugs. A robotic system, Biotek Precision XS (Winooski, VT, USA), was used for all pipetting processes in the enzyme inhibition assay. Measurements of the percentage inhibition were carried out at 412 nm by using a BioTek-Synergy H1 microplate reader (Winooski, VT, USA). Inhibition potencies of synthesized compounds and IC50 of selected derivatives were calculated as reported previously.

Sequence of AChE (O42275 24-633): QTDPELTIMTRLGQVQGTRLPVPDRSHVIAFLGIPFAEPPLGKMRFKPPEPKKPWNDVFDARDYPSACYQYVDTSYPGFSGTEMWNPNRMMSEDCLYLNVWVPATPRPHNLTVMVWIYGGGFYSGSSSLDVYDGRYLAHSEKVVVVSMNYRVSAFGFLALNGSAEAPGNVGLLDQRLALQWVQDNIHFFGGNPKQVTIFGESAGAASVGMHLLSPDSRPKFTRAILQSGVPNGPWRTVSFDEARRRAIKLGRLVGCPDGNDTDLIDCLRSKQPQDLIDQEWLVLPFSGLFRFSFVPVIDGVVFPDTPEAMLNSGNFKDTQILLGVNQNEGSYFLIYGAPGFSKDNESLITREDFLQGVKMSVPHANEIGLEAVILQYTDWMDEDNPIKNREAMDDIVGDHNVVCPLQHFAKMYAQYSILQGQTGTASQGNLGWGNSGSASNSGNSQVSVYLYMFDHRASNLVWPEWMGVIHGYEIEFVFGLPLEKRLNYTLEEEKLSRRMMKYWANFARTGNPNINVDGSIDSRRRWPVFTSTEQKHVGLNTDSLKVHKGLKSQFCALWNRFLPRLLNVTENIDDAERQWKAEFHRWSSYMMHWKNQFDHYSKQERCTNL

Compound | % Inhibition AChE ([1]; 10^−3 M) [%] | % Inhibition AChE ([1]; 10^−4 M) [%] | % Inhibition BChE ([2]; 10^−3 M) [%] | % Inhibition BChE ([2]; 10^−4 M) [%] | % Inhibition of AChE ([1]; 10^−5 M) [%] | % Inhibition of AChE ([1]; 10^−6 M) [%] | % Inhibition of AChE ([1]; 10^−7 M) [%] | % Inhibition of AChE ([1]; 10^−8 M) [%] | % Inhibition of AChE ([1]; 10^−9 M) [%] | IC50 ([1]; determined using 10^−3–10^−9 M concentrations) [nM]
Cc1ccc(C(=O)CSc2nnc(-c3ccc(-c4nc5cc(Cl)ccc5[nH]4)cc3)n2C)cc1 [3c, 2-(4-(4-Methyl-5-(2-(4-methylphenyl)-2-oxo-ethylthio)-4H-1,2,4-triazol-3yl)-phenyl)-5(6)-chloro-1H-benz-imidazole] | 39.18 ± 0.71 | 17.89 ± 0.54 | 26.11 ± 0.74 | 20.21 ± 0.61 |  |  |  |  |  | 
CCn1c(SCC(=O)c2ccc(O)c(O)c2)nnc1-c1ccc(-c2nc3cc(F)ccc3[nH]2)cc1 [3p, 2-(4-(4-Ethyl-5-(2-(3,4-dihydroxyphenyl)-2-oxo-ethylthio)-4H-1,2,4-triazol-3yl)-phenyl)-5(6)-fluoro-1H-benzimidazole] | 87.26 ± 1.17 |  | 53.19 ± 0.46 | 31.44 ± 0.38 | 77.48 ± 1.98 | 71.62 ± 1.08 | 47.83 ± 0.97 | 39.33 ± 0.67 | 15.47 ± 0.64 | 140 ± 5.1
Cn1c(SCC(=O)c2ccc(C#N)cc2)nnc1-c1ccc(-c2nc3cc(Cl)ccc3[nH]2)cc1 [3a, 2-(4-(4-Methyl-5-(2-(4-cyanophenyl)-2-oxo-ethylthio)-4H-1,2,4-triazol-3yl)-phenyl)-5(6)-chloro-1H-benz-imidazole] | 68.18 ± 1.05 | 47.26 ± 0.62 | 40.28 ± 0.98 | 25.13 ± 0.56 |  |  |  |  |  | 
CCn1c(SCC(=O)c2ccc(C)cc2)nnc1-c1ccc(-c2nc3cc(F)ccc3[nH]2)cc1 [3o, 2-(4-(4-Ethyl-5-(2-(4-methylphenyl)-2-oxo-ethylthio)-4H-1,2,4-triazol-3yl)-phenyl)-5(6)-fluoro-1H-benz-imidazole] | 28.06 ± 0.33 | 19.22 ± 0.30 | 25.99 ± 0.38 | 20.08 ± 0.46 |  |  |  |  |  | 
CCn1c(SCC(=O)c2ccc(Br)cc2)nnc1-c1ccc(-c2nc3cc(F)ccc3[nH]2)cc1 [3n, 2-(4-(4-Ethyl-5-(2-(4-bromophenyl)-2-oxo-ethylthio)-4H-1,2,4-triazol-3yl)-phenyl)-5(6)-fluoro-1H-benz-imidazole] | 49.27 ± 0.55 | 30.21 ± 0.49 | 27.10 ± 0.53 | 18.77 ± 0.42 |  |  |  |  |  | 
CCn1c(SCC(=O)c2ccc(C)cc2)nnc1-c1ccc(-c2nc3cc(Cl)ccc3[nH]2)cc1 [3g, 2-(4-(4-Ethyl-5-(2-(4-methylphenyl)-2-oxo-ethylthio)-4H-1,2,4-triazol-3yl)-phenyl)-5(6)-chloro-1H-benz-imidazole] | 37.20 ± 0.68 | 18.33 ± 0.38 | 31.89 ± 0.99 | 24.75 ± 0.95 |  |  |  |  |  | 
Cc1ccc(C(=O)CSc2nnc(-c3ccc(-c4nc5cc(F)ccc5[nH]4)cc3)n2C)cc1 [3k, 2-(4-(4-Methyl-5-(2-(4-methylphenyl)-2-oxo-ethylthio)-4H-1,2,4-triazol-3yl)-phenyl)-5(6)-fluoro-1H-benz-imidazole] | 42.29 ± 0.71 | 27.88 ± 0.67 | 36.17 ± 0.93 | 21.16 ± 0.97 |  |  |  |  |  | 
